Results on 24 compounds are retold here after ChEMBL document CHEMBL1128701 (J Med Chem, 1995).

SMILES strings stand for the structures.

This test has as its target T1, Progesterone receptor (Homo sapiens, UniProt P06401).
T1 sequence (P06401 whole entry): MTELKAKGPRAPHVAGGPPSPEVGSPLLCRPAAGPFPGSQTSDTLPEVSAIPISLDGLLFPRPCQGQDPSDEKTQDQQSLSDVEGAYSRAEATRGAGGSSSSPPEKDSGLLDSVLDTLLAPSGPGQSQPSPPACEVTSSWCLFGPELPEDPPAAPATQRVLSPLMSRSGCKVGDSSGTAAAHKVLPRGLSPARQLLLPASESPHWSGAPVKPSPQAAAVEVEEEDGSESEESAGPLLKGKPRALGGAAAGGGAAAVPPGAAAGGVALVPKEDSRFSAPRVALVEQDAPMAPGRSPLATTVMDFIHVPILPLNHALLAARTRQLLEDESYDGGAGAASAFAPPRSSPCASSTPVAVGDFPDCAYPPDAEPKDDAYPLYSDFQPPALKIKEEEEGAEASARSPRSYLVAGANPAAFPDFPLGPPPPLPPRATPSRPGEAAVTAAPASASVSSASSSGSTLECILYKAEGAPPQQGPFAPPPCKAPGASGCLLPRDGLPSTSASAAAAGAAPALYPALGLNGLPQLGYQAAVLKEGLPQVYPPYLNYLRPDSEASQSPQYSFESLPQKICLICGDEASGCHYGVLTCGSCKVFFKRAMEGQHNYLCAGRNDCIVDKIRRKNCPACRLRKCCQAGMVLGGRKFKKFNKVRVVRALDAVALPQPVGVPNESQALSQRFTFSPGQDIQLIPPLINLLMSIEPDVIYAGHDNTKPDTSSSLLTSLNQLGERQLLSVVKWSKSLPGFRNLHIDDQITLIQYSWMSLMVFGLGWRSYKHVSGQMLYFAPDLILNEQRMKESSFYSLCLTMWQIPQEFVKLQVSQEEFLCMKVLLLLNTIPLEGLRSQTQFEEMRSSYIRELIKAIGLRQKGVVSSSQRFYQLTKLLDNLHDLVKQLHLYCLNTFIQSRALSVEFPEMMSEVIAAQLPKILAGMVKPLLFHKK
In words: Binding affinity against Progesterone receptor in human TE85 osteosarcoma cells was determined using (Z)-[125I]-17-alpha-(2-iodovinyl)-19-nor-testosterone as radioligand.
For `O=C(c1ccc(Cl)c(Cl)c1)N1CC=CC(c2ccccc2)=N1`, the IC50 (in general, the midpoint of a concentration-inhibition curve) was above 1000 nM.
Turning to `Clc1ccc(CN2CCCC(c3ccccc3)=N2)cc1Cl`, the IC50 is above 1000 nM.
Turning to `O=C(c1ccc(Cl)c(Cl)c1)N1CCCC(c2ccc(Cl)cc2)=N1`, the IC50 was determined as 84 nM.
Consider `CCCCc1ccc(C2=NN(C(=O)c3ccc(Cl)c(Cl)c3)CCC2)cc1`, for which the IC50 is above 1000 nM.
Compound `CC(C)(C)c1ccc(C(=O)N2CCCC(c3ccccc3)=N2)cc1` came in with an IC50 above 1000 nM.
The compound `O=C1CCC(c2ccccc2)=NN1Cc1ccc(Cl)c(Cl)c1` gave an IC50 of 170 nM.
Turning to `Cc1ccc(C(=O)N2CCCC(c3ccccc3)=N2)cc1`, the IC50 came to 416 nM.
Turning to `CC1CCN(C(=O)c2ccc(Cl)c(Cl)c2)N=C1c1ccccc1` (centres undefined), the IC50 stood at 24 nM.
`O=C(c1ccc(Cl)c(Cl)c1)N1CCCC(c2ccc(F)cc2)=N1` registered an IC50 of 48.2 nM.
For the compound `O=C(c1ccc(F)c(F)c1)N1CCCC(c2ccccc2)=N1`, the IC50 worked out at 515 nM.
Turning to `O=C(c1ccc(Cl)c(C(F)(F)F)c1)N1CCCC(c2ccccc2)=N1`, the IC50 came to 270 nM.
With `S=C(c1ccc(Cl)c(Cl)c1)N1CCCC(c2ccccc2)=N1`, the IC50 amounted to 17.5 nM.
The value for `COc1ccc(C2=NN(C(=O)c3ccc(Cl)c(Cl)c3)CCC2)cc1` was above 1000 nM.
The compound `O=C(c1ccc(Cl)cc1)N1CCCC(c2ccccc2)=N1` came in with an IC50 of 521 nM.
For `O=C(c1ccc(Cl)c(Cl)c1)N1CCCC(c2ccccc2)=N1`, the IC50 was determined as 62.4 nM.
The value for `CC1CC(c2ccccc2)=NN(C(=O)c2ccc(Cl)c(Cl)c2)C1` (centres undefined) was 98 nM; that for `O=C(c1ccc(F)c(Br)c1)N1CCCC(c2ccccc2)=N1` was 38.2 nM; that for `O=S(=O)(c1ccc(Cl)c(Cl)c1)N1CCCC(c2ccccc2)=N1` was above 1000 nM.
`COc1ccc(C(=O)N2CCCC(c3ccccc3)=N2)cc1` returned an IC50 above 1000 nM.
With `CC1(C)CC(c2ccccc2)=NN(C(=O)c2ccc(Cl)c(Cl)c2)C1` the figure was 75.3 nM.
`O=C(c1cccc(Cl)c1)N1CCCC(c2ccccc2)=N1` registered an IC50 of 70.6 nM.
As to `O=C(c1ccccc1)N1CCCC(c2ccccc2)=N1`, the IC50 is above 1000 nM.
The value for `CCc1ccc(C2=NN(C(=O)c3ccc(Cl)c(Cl)c3)CCC2)cc1` was 570 nM; that for `O=C(c1ccc(Br)cc1)N1CCCC(c2ccccc2)=N1` was above 1000 nM.
